Laboratory results: patent US12667572B2, “Tricyclic compounds useful in the treatment of cancer, autoimmune and inflammatory disorders” (SCHRÖDINGER, INC., priority 2021, dated 2026)

What was measured:
[1] = test system: IL10 secretion in OCI-LY10 cells; assay: Human IL10 secretion assay, Assay 1 (HTRF); type: cell-based; details: 24 h incubation, read-out: IL-10 Secretion IC50 [nM] Assay 1
Description: IL10 is one of the cytokines that are regulated via activation of NF-kB signaling. For example, in ABC-DLBCL cell lines, the activated NF-kB signaling leads to increased IL10 secretion. Inhibition of NF-kB signaling has been shown leading to decreased IL10 secretion.
Assay 1: OCI-LY10 cells were seeded in IMEM supplemented with 20% fetal bovine serum at 3×10^5 cells per well in 96-well round bottom plates (Corning 3799, Corning), treated with 100 nL of 3-fold serial compound dilutions, starting at 10 mM. The final vehicle concentration was 0.1% DMSO in all wells. After 24 h incubation, the cells were transferred to 96-PCR plates (Axygen: PCR-96-FLT-C) and centrifuged, then 16 μL of cell culture media was transferred to HTRF plates and IL10 levels were measured using human IL-10 Assay Kits (Cisbio) using HTRF format. The signals were transformed to percentage of remaining activity by using the high control (HC, median of signal from wells containing cells treated with DMSO) and low control (LC, median of signal from wells with no cells). IC50 values (nM) were determined using 4-parametric curve-fitting and Hill coefficient obtained using Graph Pad Prism (Graph Pad software, Inc, USA) with non-linear regression analysis.

[2] = target: T1, full-length MALT1 protein His-MALT1(1-824) (Homo sapiens, UniProt Q9UDY8); assay: MALT1 protease assay, Assay 1 (2 nM MALT1, Ac-LRSR-AMC substrate); type: biochemical; details: 2 nM MALT1, 50 μM Ac-LRSR-AMC, 2 h pre-incubation, 8 hr incubation at RT
T1 construct: full-length MALT1 protein His-MALT1(1-824); His (N); made in house; host or cells: baculovirus-infected insect cells
T1 sequence (Q9UDY8 1-824): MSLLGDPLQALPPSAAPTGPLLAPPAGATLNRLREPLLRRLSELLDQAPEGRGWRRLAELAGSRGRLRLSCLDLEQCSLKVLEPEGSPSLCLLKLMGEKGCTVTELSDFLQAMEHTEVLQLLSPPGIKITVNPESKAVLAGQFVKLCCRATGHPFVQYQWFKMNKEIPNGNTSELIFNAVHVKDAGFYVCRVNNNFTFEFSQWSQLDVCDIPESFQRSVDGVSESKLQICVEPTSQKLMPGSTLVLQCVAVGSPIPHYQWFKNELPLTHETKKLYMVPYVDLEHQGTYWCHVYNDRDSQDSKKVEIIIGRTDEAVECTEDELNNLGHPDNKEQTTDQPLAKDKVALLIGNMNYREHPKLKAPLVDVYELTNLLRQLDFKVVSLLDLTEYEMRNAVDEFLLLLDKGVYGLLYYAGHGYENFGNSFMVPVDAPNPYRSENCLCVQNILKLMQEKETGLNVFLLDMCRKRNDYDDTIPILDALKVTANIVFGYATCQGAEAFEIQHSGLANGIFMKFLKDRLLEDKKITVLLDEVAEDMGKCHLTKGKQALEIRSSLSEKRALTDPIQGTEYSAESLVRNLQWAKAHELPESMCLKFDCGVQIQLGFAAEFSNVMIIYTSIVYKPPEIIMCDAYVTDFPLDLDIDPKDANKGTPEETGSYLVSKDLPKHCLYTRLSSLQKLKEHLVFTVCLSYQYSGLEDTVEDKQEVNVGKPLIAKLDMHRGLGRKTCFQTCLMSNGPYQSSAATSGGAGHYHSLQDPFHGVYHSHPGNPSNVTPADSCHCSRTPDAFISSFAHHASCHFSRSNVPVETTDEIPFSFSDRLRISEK
Description: MALT1 protease activity was assessed in an in vitro assay using a tetrapeptide as substrate and full-length MALT1 protein His-MALT1(1-824) purified from baculovirus-infected insect cells. The tetrapeptide substrate is Ac-LRSR-AMC (SM Biochemicals) with Km measured at around 100 μM.
The final assay buffer includes 1 nM (Assay 2) or 2 nM (Assay 1) of MALT1 full-length protein, 50 μM Ac-LRSR-AMC substrate, 50 mM Tris pH 7.5, 600 mM Sodium Citrate, 1 mM DTT, 1 mM EDTA, and 0.05% BSA in 384-well plate format using black microtiter square well plates (Optiplate 384-F, Perkin Elmer).
Test compounds were dissolved in 100% DMSO at stock of 10 mM, with final DMSO concentration 0.1%. Test compounds were pre-incubated with MALT1 protein for 2 h at room temperature. Substrate was added after the pre-incubation and fluorescence signal was measured using Envision at excitation 355 nm and emission 460 nm after 8 hr incubation at RT. Increase in the assay signal was linear over this period and proportional with increase in the enzyme content.
The fluorescence units were transformed to percentage of remaining activity by using the high control (HC, median of fluorescence signal from wells containing MALT1 protein, substrate, and DMSO) and low control (LC, median of fluorescence signal from wells with substrate only) with the formula below: […]
IC50 and Hill coefficients were obtained using Graph Pad Prism (Graph Pad software, Inc, USA) with non-linear regression analysis.

[3] = target: T1, full-length MALT1 protein His-MALT1(1-824); assay: MALT1 protease assay, Assay 2 (1 nM MALT1, Ac-LRSR-AMC substrate); type: biochemical; details: 1 nM MALT1, 50 μM Ac-LRSR-AMC, 2 h pre-incubation, 8 hr incubation at RT
Procedure, shortened: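 Full-length His-MALT1(1-824) from baculovirus-infected insect cells, pre-incubated with compound 2 h at RT (0.1% DMSO). Then 50 μM Ac-LRSR-AMC added. Buffer was Tris pH 7.5 with 600 mM sodium citrate, DTT, EDTA and BSA. Fluorescence (ex 355/em 460 nm) was read after 8 h at RT and normalized to high/low controls. IC50 from non-linear regression.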

[4] = test system: IL10 secretion in OCI-LY10 cells; assay: Human IL10 secretion assay, Assay 2 (MSD); type: cell-based; details: 24 h incubation, Meso Scale Discovery, read-out: IL-10 Secretion IC50 [nM] Assay 2

For `CC1(C)CCC(C(=O)Nc2cnc(-n3nccn3)c(Cl)c2)c2cnc3cc(Cl)nn3c21` (single isomer, unassigned) [Example 9, 2-chloro-N-(5-chloro-6-(2H-1,2,3-triazol-2-yl)pyridin-3-yl)-9,9-dimethyl-6,7,8,9-tetrahydropyrazolo[1,5-a]quinazoline-6-carboxamide], which IC50 [1] is on record?
The IC50 was 100 to 1000 nM.

And the IC50 [2]?
The IC50 was 10 to 100 nM.

How did the IC50 [1] turn out when `C[C@]1(C(F)(F)F)C[C@H](C(=O)Nc2cnc(-n3nccn3)c(Cl)c2)c2cnc3cc(Cl)nn3c21` (single isomer, unassigned) [Example 38, 2-chloro-N-(5-chloro-6-(2H-1,2,3-triazol-2-yl)pyridin-3-yl)-8-methyl-8-(trifluoromethyl)-7,8-dihydro-6H-cyclopenta[e]pyrazolo[1,5-a]pyrimidine-6-carboxamide] was run?
Its IC50 is 100 to 1000 nM.

What about the IC50 [2] of the same molecule?
The IC50 was < 10 nM.

With `CC1(C)CC(C(=O)Nc2cnc(-n3nccn3)c(Cl)c2)c2cnc3cc(Cl)nn3c21` (single isomer, unassigned) [Example 2, 2-chloro-N-(5-chloro-6-(2H-1,2,3-triazol-2-yl)pyridin-3-yl)-8,8-dimethyl-7,8-dihydro-6H-cyclopenta[e]pyrazolo[1,5-a]pyrimidine-6-carboxamide] as the molecule, how does the IC50 [1] read?
Its IC50 is 100 to 1000 nM.

What about the IC50 [2] of the same molecule?
Its IC50 is < 10 nM.

Which IC50 [1] does the source give for `Cn1ccc(-c2ncc(NC(=O)C3CC(C)(C)c4c3cnc3cc(Cl)nn43)cc2Cl)n1` (single isomer, unassigned) [Example 11, 2-chloro-N-(5-chloro-6-(1-methyl-1H-pyrazol-3-yl)pyridin-3-yl)-8,8-dimethyl-7,8-dihydro-6H-cyclopenta[e]pyrazolo[1,5-a]pyrimidine-6-carboxamide] here?
Its IC50 is 100 to 1000 nM.

And the IC50 [2]?
Its IC50 is 10 to 100 nM.

For `Cn1cnc(-c2ncc(NC(=O)C3CC(C)(C)c4c3cnc3cc(Cl)nn43)cc2Cl)c1` (single isomer, unassigned) [Example 35, 2-chloro-N-(5-chloro-6-(1-methyl-1H-imidazol-4-yl)pyridin-3-yl)-8,8-dimethyl-7,8-dihydro-6H-cyclopenta[e]pyrazolo[1,5-a]pyrimidine-6-carboxamide], which IC50 [1] is on record?
Its IC50 is ≥ 1000 nM.

And the IC50 [2]?
The IC50 was 10 to 100 nM.

What does the source list for `C[C@@]1(C(F)(F)F)C[C@H](C(=O)Nc2cnc(-n3nccn3)c(Cl)c2)c2cnc3cc(Cl)nn3c21` (single isomer, unassigned) [Example 36, 2-chloro-N-(5-chloro-6-(2H-1,2,3-triazol-2-yl)pyridin-3-yl)-8-methyl-8-(trifluoromethyl)-7,8-dihydro-6H-cyclopenta[e]pyrazolo[1,5-a]pyrimidine-6-carboxamide]?
IC50 [1]: 100 to 1000 nM; IC50 [2]: < 10 nM

With `CC1(C)CC(C(=O)Nc2cnc(-n3nccn3)c(Cl)c2)c2cnc3cc(F)nn3c21` (single isomer, unassigned) [Example 33, N-(5-chloro-6-(2H-1,2,3-triazol-2-yl)pyridin-3-yl)-2-fluoro-8,8-dimethyl-7,8-dihydro-6H-cyclopenta[e]pyrazolo[1,5-a]pyrimidine-6-carboxamide] as the molecule, how does the IC50 [1] read?
The IC50 was 10 to 100 nM.

And the IC50 [2]?
Its IC50 is < 10 nM.

`CC1(C)CC(C(=O)Nc2cnc(-n3cccn3)c(Cl)c2)c2cnc3cc(Cl)nn3c21` (single isomer, unassigned) [Example 13, 2-chloro-N-(5-chloro-6-(1H-pyrazol-1-yl)pyridin-3-yl)-8,8-dimethyl-7,8-dihydro-6H-cyclopenta[e]pyrazolo[1,5-a]pyrimidine-6-carboxamide] was tested. Which IC50 [1] did it give?
Its IC50 is 100 to 1000 nM.

What about the IC50 [2] of the same molecule?
The IC50 was 10 to 100 nM.

With `O=C(Nc1cnc(-n2nccn2)c(Cl)c1)[C@H]1CC2(CCC2)c2c1cnc1cc(F)nn21` (single isomer, unassigned) [Example 108, N-(5-chloro-6-(2H-1,2,3-triazol-2-yl)pyridin-3-yl)-2′-fluoro-6′,7′-dihydrospiro[cyclobutane-1,8′-cyclopenta[e]pyrazolo[1,5-a]pyrimidine]-6′-carboxamide] as the molecule, how does the IC50 [3] read?
The IC50 was < 10 nM.

And the IC50 ([4]; Homo sapiens)?
The IC50 was 100 to 1000 nM.

`CC1(C)CC(C(=O)Nc2cnc(OC(F)F)c(Cl)c2)c2cnn3cc(Cl)nc3c21` (single isomer, unassigned) [Example 191, 2-chloro-N-(5-chloro-6-(difluoromethoxy)pyridin-3-yl)-9,9-dimethyl-8,9-dihydro-7H-cyclopenta[d]imidazo[1,2-b]pyridazine-7-carboxamide] was tested. Which IC50 [3] did it give?
Its IC50 is < 10 nM.

What about the IC50 ([4]; Homo sapiens) of the same molecule?
Its IC50 is 100 to 1000 nM.

With `CC1(C)CC(C(=O)Nc2cnc(OC3CC3)c(Cl)c2)c2cnc3cc(Cl)nn3c21` (single isomer, unassigned) [Example 75, 2-chloro-N-(5-chloro-6-cyclopropoxypyridin-3-yl)-8,8-dimethyl-7,8-dihydro-6H-cyclopenta[e]pyrazolo[1,5-a]pyrimidine-6-carboxamide] as the molecule, how does the IC50 [3] read?
Its IC50 is 10 to 100 nM.

What about the IC50 ([4]; Homo sapiens) of the same molecule?
The IC50 was 100 to 1000 nM.

`C[C@@]1(C(F)(F)F)C[C@H](C(=O)Nc2cnc(-n3nccn3)c(C(F)(F)F)c2)c2cnc3cc(Cl)nn3c21` (single isomer, unassigned) [Example 56, N-(6-(2H-1,2,3-triazol-2-yl)-5˜(trifluoromethyl)pyridin-3-yl)-2-chloro-8-methyl-8-(trifluoromethyl)-7,8-dihydro-6H-cyclopenta[e]pyrazolo[1,5-a]pyrimidine-6-carboxamide] was tested. Which IC50 [3] did it give?
Its IC50 is < 10 nM.

And the IC50 [4]?
The IC50 was 100 to 1000 nM.

Which results are given for `CC1(C)C[C@H](C(=O)Nc2cnc(OC(F)F)c(Cl)c2)c2cnc3cc(F)nn3c21` (single isomer, unassigned) [Example 77, N-(5-chloro-6-(difluoromethoxy)pyridin-3-yl)-2-fluoro-8,8-dimethyl-7,8-dihydro-6H-cyclopenta[e]pyrazolo[1,5-a]pyrimidine-6-carboxamide]?
IC50 [3]: < 10 nM; IC50 ([4]; Homo sapiens): 10 to 100 nM

How did the IC50 [3] turn out when `O=C(Nc1cnc(-n2nccn2)c(Cl)c1)C1CC2(CC2)c2c1cnc1cc(Cl)nn21` (single isomer, unassigned) [Example 97, 2-chloro-N-(5-chloro-6-(2H-1,2,3-triazol-2-yl)pyridin-3-yl)-6,7-dihydrospiro[cyclopenta[e]pyrazolo[1,5-a]pyrimidine-8,1′-cyclopropane]-6-carboxamide] was run?
The IC50 was 10 to 100 nM.

What about the IC50 ([4]; Homo sapiens) of the same molecule?
Its IC50 is 100 to 1000 nM.
